We go through eight molecules from ChEMBL document CHEMBL1201862, “PubChem BioAssay data set” (2004).

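In this assay, cells in 96-well plates receive the compound at five concentrations for 48 hours. Endpoints are linearly interpolated between the surrounding concentrations. GI50 marks 50% less growth.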 The source made the active and inactive calls. No stated cut-off is given here; in the data, active = GI50 up to about 1.1 µM and inactive = higher.

Some test systems named below: 786-0; BT-549; CAKI-1; DU-145; LOX IMVI; M14; MCF7; MDA-MB-231; NCI-H23; NCI-H460; NCI/ADR-RES; PC-3; SK-MEL-5; SK-OV-3; SNB-19; SW-620; UO-31; HOP-62; SK-MEL-28; SR.
Holding throughout (test): inhibition of tumour cell growth, NCI panel, 48 h

With `COc1cc(OC)cc(-c2nc3cc(F)ccc3s2)c1`, the GI50 in the experiment on 786-0 is 9.08 µM (inactive); in the experiment on BT-549, 11 µM (inactive); with CAKI-1, 40.2 µM (inactive); with DU-145 it was 26.1 µM (inactive); in the experiment with LOX IMVI, 53.8 µM (inactive); in the experiment with M14 it was 37.3 µM (inactive). For the same molecule, the GI50 in the experiment with MCF7 is 1.83 µM (inactive); in the experiment with MDA-MB-231 it was 13.6 µM (inactive); with NCI-H23 it was 12.9 µM (inactive); in the experiment with NCI-H460, 21.8 µM (inactive); in the experiment with NCI/ADR-RES it was > 100 µM (inactive); in the experiment on PC-3 it was 39.5 µM (inactive). The GI50 is > 100 µM (inactive) in the experiment on SK-MEL-5; 13.5 µM (inactive) with SK-OV-3; 16.9 µM (inactive) with SNB-19; > 100 µM (inactive) in the experiment with SW-620; 31 µM (inactive) in the experiment with UO-31.
Take `Cn1nc(C(=O)N2CC(CCl)c3c2cc([N+](=O)[O-])c2ccccc32)cc1NC(=O)Nc1cc(C(=O)N2CC(CCl)c3c2cc([N+](=O)[O-])c2ccccc32)nn1C` (stereo not drawn): the GI50 in the experiment with 786-0 was 79.6 µM (inactive); in the experiment on BT-549 it was > 100 µM (inactive); in the experiment with CAKI-1 it was > 100 µM (inactive); in the experiment on DU-145, > 100 µM (inactive); with HOP-62, 32.1 µM (inactive); in the experiment on M14, > 100 µM (inactive). Besides, the GI50 in the experiment with MCF7, with MDA-MB-231, with NCI-H23, in the experiment on NCI-H460, with NCI/ADR-RES and with PC-3 was > 100 µM (inactive) in each case. In addition, the GI50 with SK-MEL-28 is > 100 µM (inactive); in the experiment with SK-MEL-5 it was > 100 µM (inactive); in the experiment on SK-OV-3 it was > 100 µM (inactive); in the experiment on SNB-19 it was 77.4 µM (inactive); in the experiment on UO-31 it was > 100 µM (inactive).
In the case of `Cc1ccc(C(=O)N/N=C(\N=N\c2cccc([N+](=O)[O-])c2)c2ccc(N(C)C)cc2)cc1`, the GI50 with 786-0 was > 100 µM (inactive); with BT-549, 47.8 µM (inactive); with CAKI-1, 68.1 µM (inactive); in the experiment with DU-145 it was 16.6 µM (inactive); with LOX IMVI, 99.8 µM (inactive); in the experiment with M14, 29.2 µM (inactive). Further, the GI50 is > 100 µM (inactive) in the experiment on MCF7; > 100 µM (inactive) with MDA-MB-231; > 100 µM (inactive) in the experiment with NCI-H23; 57.7 µM (inactive) in the experiment on NCI-H460; 41.8 µM (inactive) with NCI/ADR-RES; > 100 µM (inactive) with PC-3. The GI50 with SK-MEL-28 is > 100 µM (inactive); in the experiment with SK-MEL-5, 25.7 µM (inactive); with SNB-19, 54.5 µM (inactive); in the experiment on SW-620 it was > 100 µM (inactive); in the experiment on UO-31 it was 61.2 µM (inactive).
For the molecule `C=C1C(=O)C=C2C=C3C(=O)C(C)(C)C[C@]3(O)C12C` (stereo partly drawn), the GI50 with 786-0 is 1.81 µM (inactive); in the experiment on BT-549, 1.54 µM (inactive); in the experiment on CAKI-1, 1.82 µM (inactive); in the experiment with DU-145 it was 18.8 µM (inactive); in the experiment on HOP-62 it was 22.5 µM (inactive); with LOX IMVI, 5.14 µM (inactive). Moreover, the GI50 with M14 was 1.73 µM (inactive); in the experiment on MDA-MB-231 it was 2.36 µM (inactive); with NCI-H23, 4.81 µM (inactive); in the experiment with NCI-H460, 18.9 µM (inactive); in the experiment with NCI/ADR-RES it was 28.8 µM (inactive); in the experiment on PC-3 it was 3.14 µM (inactive). Further, the GI50 in the experiment with SK-MEL-28 was 2.52 µM (inactive); with SK-MEL-5 it was 6.62 µM (inactive); with SK-OV-3 it was 19.3 µM (inactive); with SNB-19, 29.5 µM (inactive); in the experiment with SR, 0.452 µM (active); in the experiment on SW-620, 0.968 µM (active). Further, the GI50 in the experiment with UO-31 is 7.11 µM (inactive).
In the case of `O=C1C(F)=CC(COC(c2ccccc2)(c2ccccc2)c2ccccc2)OC1n1cc(F)c(=O)[nH]c1=O` (stereo not drawn), the GI50 in the experiment on 786-0 is 1.97 µM (inactive); in the experiment on BT-549 it was 1.71 µM (inactive); in the experiment on CAKI-1, 2.49 µM (inactive); with HOP-62 it was 3.18 µM (inactive); in the experiment with LOX IMVI it was 0.533 µM (active); with M14, 1.83 µM (inactive). In addition, the GI50 in the experiment with MCF7 was 2.07 µM (inactive); with MDA-MB-231, 3.26 µM (inactive); with NCI-H23, 1.77 µM (inactive); in the experiment on NCI-H460, 2.62 µM (inactive); with NCI/ADR-RES it was 2.04 µM (inactive); in the experiment on PC-3, 1.71 µM (inactive). Further, the GI50 with SK-MEL-28 is 1.62 µM (inactive); with SK-MEL-5 it was 1.35 µM (inactive); in the experiment on SK-OV-3, 7.05 µM (inactive); in the experiment on SNB-19, 5.09 µM (inactive); in the experiment on SR, 6.18 µM (inactive); in the experiment on SW-620, 0.723 µM (active). In the experiment on UO-31, the GI50 is 2.2 µM (inactive).
With `C=CC(CBr)CCC(Br)C(C)(C)Br` (stereo not drawn), the GI50 in the experiment on 786-0, in the experiment with BT-549, in the experiment with CAKI-1, with DU-145, with HOP-62 and with M14 was > 10 µM (inactive) in each case. Further, the GI50 with MCF7, with MDA-MB-231, with NCI-H23, with NCI-H460, in the experiment on NCI/ADR-RES and in the experiment on PC-3 was > 10 µM (inactive) in each case. Also, the GI50 with SK-MEL-28, in the experiment on SK-MEL-5, in the experiment with SK-OV-3, in the experiment on SNB-19, with SW-620 and with UO-31 was > 10 µM (inactive) each time.
With `CCOC(=O)C1=CN=C2C(=O)N(c3ccccc3)N(C)C2(C)C1=N` (stereo not drawn), the GI50 with 786-0, in the experiment with BT-549, with CAKI-1, in the experiment on DU-145, in the experiment on LOX IMVI and in the experiment on M14 was > 100 µM (inactive) throughout. The GI50 with MCF7, in the experiment with MDA-MB-231, in the experiment with NCI-H23, in the experiment on NCI-H460, with NCI/ADR-RES and with PC-3 was > 100 µM (inactive) throughout. Also, the GI50 in the experiment with SK-MEL-28, in the experiment with SK-MEL-5, with SK-OV-3, in the experiment on SNB-19, in the experiment with SW-620 and with UO-31 was > 100 µM (inactive) in each case.
`N#Cc1c(N2CCC(O)C2)c2ccccc2n2c1nc1ccccc12` (stereo not drawn): the GI50 in the experiment on 786-0 is 17.1 µM (inactive); with BT-549 it was 46.9 µM (inactive); in the experiment with CAKI-1, 37.9 µM (inactive); with DU-145 it was > 100 µM (inactive); in the experiment on HOP-62, 18.6 µM (inactive); with LOX IMVI, > 100 µM (inactive). The GI50 in the experiment on M14 was > 100 µM (inactive); in the experiment with MCF7 it was > 100 µM (inactive); in the experiment on MDA-MB-231 it was 19.4 µM (inactive); in the experiment with NCI-H23, 67.6 µM (inactive); in the experiment with NCI-H460 it was > 100 µM (inactive); in the experiment with NCI/ADR-RES it was 65.3 µM (inactive). Besides, the GI50 in the experiment on PC-3 was > 100 µM (inactive); with SK-MEL-28 it was > 100 µM (inactive); with SK-MEL-5, > 100 µM (inactive); in the experiment on SNB-19, 32.1 µM (inactive); with SW-620, > 100 µM (inactive); in the experiment with UO-31, > 100 µM (inactive).
